Columns and labels:
[1] = target: ALK kinase (Homo sapiens, UniProt Q9UM73); experiment: Test to measure ALK kinase inhibition (GST-PLCγ1 substrate, anti-phosphotyrosine ELISA, luminescence); format: biochemical; conditions: ALK kinase 180 ng/ml, 250 μM ATP, 30 minutes at 30° C.
Description: Test to Measure ALK Kinase Inhibition
A ViewPlate (Packard) is incubated with the GST-PLCγ1 substrate (purified recombinant form) at 0.1 mg/ml in phosphate buffer (PBS pH 7.4)(100 μl/well) for one hour under shaking. The plate is then saturated with a blocking solution containing 5% bovine serum albumin (BSA) (SIGMA) in PBS buffer pH 7.4.
After adding the inhibitor at the desired final concentration (usual range of 30 μM to 10 nM), the reaction is conducted by adding the ALK kinase at 180 ng/ml in 13 mM Tris reaction buffer pH 7.5 (SIGMA); 6.5 mM MgCl2 (MERCK); 0.65 mM DiThioThreitol (DTT) (ACROS); 39 mM sodium β-glycerophosphate (TCI); 0.65 mM sodium orthovanadate (SIGMA) and 250 μM ATP (SIGMA). Incubation is carried out for 30 minutes at 30° C. under shaking.
After three washings under shaking in 0.1% PBS/Tween-20 buffer (SIGMA), an anti-phosphotyrosine antibody coupled with HRP (UBI) diluted to 1/1000th in PBS/BSA buffer 5 mg/ml, is incubated for one hour under shaking. After three further washings in 0.1% PBS/Tween-20, the wells are incubated two minutes with 100 μl of SuperSignal ELISA mixture (PIERCE).
The signal is read in luminescent mode using a luminometer (MOLECULAR DEVICES SpectraMax M5e).

[2] = tested on: karpas 299 cells; experiment: Measurement of inhibition of cell proliferation (Karpas), ATPlite; format: cell-based
Description: Measurement of Inhibition of Cell Proliferation (Karpas):
The antiproliferative activities of the compounds were measured using the ATPlite technique (Perkin Elmer).
The non-adhering cells (karpas 299) are seeded in 96-well plates (300 000 cells/ml) on Day 1 at a concentration compatible with logarithmic growth for 72 hours required for evaluation of the compounds. All the cells are treated on Day 1, then placed in an incubator at 37° C. under 5% CO2 atmosphere. Cell viability is evaluated on Day 4 by assay of released ATP, characteristic of viable cells. The IC50 values are determined by non-linear regression on the basis of a sigmoid model of dose/response relationship, Hill's slope coefficient being left variable, performed using GraphPad software sequence with the supplied algorithm.

Chain of ALK kinase (Q9UM73 19-1620): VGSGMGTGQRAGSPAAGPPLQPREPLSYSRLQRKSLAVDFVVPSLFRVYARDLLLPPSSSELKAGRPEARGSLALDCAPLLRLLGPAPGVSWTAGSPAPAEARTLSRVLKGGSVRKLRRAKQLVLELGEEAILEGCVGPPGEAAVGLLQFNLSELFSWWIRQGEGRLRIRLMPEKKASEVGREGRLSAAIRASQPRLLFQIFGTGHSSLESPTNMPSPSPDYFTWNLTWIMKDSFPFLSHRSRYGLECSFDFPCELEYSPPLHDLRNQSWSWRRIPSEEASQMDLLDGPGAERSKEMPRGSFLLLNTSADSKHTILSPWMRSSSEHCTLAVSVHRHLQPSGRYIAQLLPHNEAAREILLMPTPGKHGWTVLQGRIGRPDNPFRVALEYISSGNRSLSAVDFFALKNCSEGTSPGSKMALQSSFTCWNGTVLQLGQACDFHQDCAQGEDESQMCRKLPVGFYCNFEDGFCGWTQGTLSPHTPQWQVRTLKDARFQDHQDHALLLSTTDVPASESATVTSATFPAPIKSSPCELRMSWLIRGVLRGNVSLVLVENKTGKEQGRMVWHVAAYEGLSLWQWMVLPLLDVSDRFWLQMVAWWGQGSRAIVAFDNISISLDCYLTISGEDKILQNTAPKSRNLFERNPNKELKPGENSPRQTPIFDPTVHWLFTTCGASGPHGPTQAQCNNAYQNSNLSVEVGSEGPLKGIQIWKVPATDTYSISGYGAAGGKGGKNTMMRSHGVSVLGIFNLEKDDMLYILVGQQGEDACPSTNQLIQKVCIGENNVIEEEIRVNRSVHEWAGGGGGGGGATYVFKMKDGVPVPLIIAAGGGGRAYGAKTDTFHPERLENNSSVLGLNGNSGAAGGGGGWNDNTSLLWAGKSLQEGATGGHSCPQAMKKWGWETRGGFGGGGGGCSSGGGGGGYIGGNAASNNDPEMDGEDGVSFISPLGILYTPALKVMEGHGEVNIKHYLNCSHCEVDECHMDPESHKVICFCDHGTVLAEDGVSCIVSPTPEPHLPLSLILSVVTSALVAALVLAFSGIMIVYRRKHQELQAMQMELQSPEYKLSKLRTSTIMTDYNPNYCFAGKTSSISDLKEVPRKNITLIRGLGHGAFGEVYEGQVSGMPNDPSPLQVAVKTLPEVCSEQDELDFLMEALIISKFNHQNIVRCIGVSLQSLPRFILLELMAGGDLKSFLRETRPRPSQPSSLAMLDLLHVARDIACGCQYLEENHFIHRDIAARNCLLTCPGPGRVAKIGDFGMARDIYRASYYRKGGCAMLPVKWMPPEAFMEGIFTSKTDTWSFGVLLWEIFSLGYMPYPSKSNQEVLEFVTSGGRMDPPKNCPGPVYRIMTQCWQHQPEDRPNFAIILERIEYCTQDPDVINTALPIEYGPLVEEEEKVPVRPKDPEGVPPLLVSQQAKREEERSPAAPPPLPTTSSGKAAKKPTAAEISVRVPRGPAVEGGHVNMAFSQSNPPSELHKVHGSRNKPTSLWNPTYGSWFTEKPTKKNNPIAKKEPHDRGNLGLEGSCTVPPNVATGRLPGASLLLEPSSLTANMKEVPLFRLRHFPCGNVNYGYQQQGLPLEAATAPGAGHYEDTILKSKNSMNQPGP

IC50 [1] | IC50 ([2]; Homo sapiens, KARPAS-299, 72 h) | IC50 ([2]; 72 hours) | Compound
1000 to 10000 nM | 100 to 1000 nM |  | N#Cc1c(-c2ccc(O)cc2F)nc2[nH]nc(-c3cccs3)c2c1-c1ccc(N2CCNCC2)cc1 [Compound 196]
< 100 nM | 100 to 1000 nM |  | CNC1CCN(c2ccc(-c3c(C#N)c(-c4ccc(O)cc4F)nc4[nH]nc(C)c34)o2)C1 (centres unmarked) [Compound 130]
< 100 nM |  | 100 to 1000 nM | Cc1n[nH]c2nc(-c3ccc(O)cc3F)c(C#N)c(-c3ccc(N4CCNCC4)cc3)c12 [Compound 88]
< 100 nM | 100 to 1000 nM |  | Cc1cc(-c2nc3[nH]nc(N)c3c(-c3ccc(N4CCNCC4)cc3)c2C#N)c(F)cc1O [Compound 294]
1000 to 10000 nM | > 10000 nM |  | Cc1n[nH]c2nc(-c3ccc(O)cc3F)c(C#N)c(C(=O)NCCN3CCOCC3)c12 [Compound 136]
1000 to 10000 nM | 1000 to 10000 nM |  | N#Cc1c(-c2c(F)ccc(F)c2F)nc2[nH]nc(-c3ccco3)c2c1-c1ccc(N2CCOCC2)o1 [Compound 255]
< 100 nM | 1000 to 10000 nM |  | N#Cc1c(-c2ccc(O)cc2F)nc2[nH]nc(N)c2c1-c1ccc(N2CCNCC2)cc1 [Compound 121]
100 to 1000 nM | 1000 to 10000 nM |  | Cc1n[nH]c2nc(-c3c(F)ccc(Cl)c3F)c(C#N)c(-c3ccc(N4CCNCC4)cc3)c12 [Compound 228]
100 to 1000 nM |  | > 10000 nM | Cc1n[nH]c2nc(-c3ccc(O)cc3F)c(C#N)c(-c3csc(C4CCNCC4)n3)c12 [Compound 152]
< 100 nM | 100 to 1000 nM |  | COc1ccc(-c2n[nH]c3nc(-c4ccc(O)cc4F)c(C#N)c(-c4ccc(N5CCNCC5)cc4)c23)cc1 [Compound 198]
< 100 nM |  | > 10000 nM | Cc1n[nH]c2nc(-c3ccc(O)cc3F)c(C#N)c(-c3ccc(N4CCC(N5CCN(C)CC5)CC4)o3)c12 [Compound 142]
< 100 nM | 1000 to 10000 nM |  | N#Cc1c(-c2ccc(O)cc2F)nc2[nH]nc(N)c2c1-c1ccc(N2CCC(N)CC2)o1 [Compound 190]
< 100 nM | 100 to 1000 nM |  | CN1CCN(c2ccc(-c3c(C#N)c(-c4ccc(O)cc4F)nc4[nH]ncc34)o2)CC1 [Compound 83]
100 to 1000 nM | 1000 to 10000 nM |  | Cc1n[nH]c2nc(-c3ccc(O)cc3F)c(C#N)cc12 [Compound 260]
100 to 1000 nM | 1000 to 10000 nM |  | Cc1cc(-c2n[nH]c3nc(-c4ccc(O)cc4F)c(C#N)c(C)c23)no1 [Compound 120]
100 to 1000 nM | 1000 to 10000 nM |  | Cc1n[nH]c2nc(-c3ccc(O)cc3F)c(C#N)c(-c3ccc(N4CCNCC4)nc3)c12 [Compound 131]
< 100 nM | 1000 to 10000 nM |  | N#Cc1c(-c2ccc(O)cc2F)nc2[nH]nc(-c3ccc(F)cc3)c2c1-c1ccc(N2CCNCC2)cc1 [Compound 218]
< 100 nM | 100 to 1000 nM |  | Cc1ccc(-c2c(C#N)c(-c3ccc(O)cc3F)nc3[nH]ncc23)o1 [Compound 92]
< 100 nM | 100 to 1000 nM |  | Cc1n[nH]c2nc(-c3ccc(O)cc3F)c(C#N)c(-c3ccc(N4CCNCC4)s3)c12 [Compound 204]
100 to 1000 nM | 1000 to 10000 nM |  | Cc1c(C#N)c(-c2ccc(O)cc2F)nc2[nH]nc(-c3ccc(N(C)CCN(C)C)nc3)c12 [Compound 119]
< 100 nM | 100 to 1000 nM |  | Cc1n[nH]c2nc(-c3ccc(O)cc3F)c(C#N)c(-c3ccc(N4CCC(N)CC4)o3)c12 [Compound 133]
< 100 nM | 100 to 1000 nM |  | N#Cc1c(-c2ccc(O)cc2F)nc2[nH]ncc2c1-c1ccc(N2CCNCC2)o1 [Compound 113]
1000 to 10000 nM | 1000 to 10000 nM |  | N#Cc1c(-c2ccoc2)nc2[nH]nc(-c3ccco3)c2c1-c1ccc(N2CCNCC2)cc1 [Compound 272]

IC50 [1] | IC50 ([2]; Homo sapiens, KARPAS-299, 72 h) | IC50 ([2]; 72 hours) | Compound
100 to 1000 nM | 1000 to 10000 nM |  | Cc1c(C#N)c(-c2ccc(O)cc2F)nc2[nH]nc(N)c12 [Compound 114]
1000 to 10000 nM | > 10000 nM |  | Cc1n[nH]c2nc(-c3ccc(NS(C)(=O)=O)cc3F)c(C#N)c(-c3ccc(N4CCNCC4)cc3)c12 [Compound 208]
100 to 1000 nM | > 10000 nM |  | COc1cc(-c2c(C#N)c(-c3ccc(O)cc3F)nc3[nH]nc(N)c23)ccc1N1CCNCC1 [Compound 202]
< 100 nM | 1000 to 10000 nM |  | CN1CCN(c2ccc(-c3c(C#N)c(-c4ccc(O)cc4F)nc4[nH]nc(N)c34)o2)CC1 [Compound 104]
100 to 1000 nM | 100 to 1000 nM |  | Cc1n[nH]c2nc(-c3ccc(OC(=O)c4ccccc4)cc3F)c(C#N)c(-c3ccc(N4CCNCC4)cc3)c12 [Compound 239]
100 to 1000 nM | > 10000 nM |  | Cc1n[nH]c2nc(-c3ccc(O)cc3F)c(C#N)c(C(=O)NN3CCN(C)CC3)c12 [Compound 135]
100 to 1000 nM | 1000 to 10000 nM |  | N#Cc1c(-c2ccc(O)cc2)nc2[nH]ncc2c1-c1cccs1 [Compound 52]
100 to 1000 nM | 1000 to 10000 nM |  | N#Cc1c(-c2ccc(O)cc2F)nc2[nH]nc(-c3ccc([N+](=O)[O-])cc3)c2c1-c1ccc(N2CCNCC2)cc1 [Compound 235]
100 to 1000 nM | 1000 to 10000 nM |  | CN1CCN(c2ccc(-c3c(C#N)c(-c4ccc(O)cc4)nc4[nH]ncc34)o2)CC1 [Compound 82]
1000 to 10000 nM | 1000 to 10000 nM |  | N#Cc1c(-c2cncs2)nc2[nH]nc(-c3cccs3)c2c1-c1ccc(N2CCNCC2)cc1 [Compound 280]
> 10000 nM | 1000 to 10000 nM |  | N#Cc1c(-c2cscn2)nc2[nH]nc(-c3cccs3)c2c1-c1ccc(N2CCNCC2)cc1 [Compound 276]
1000 to 10000 nM | > 10000 nM |  | N#Cc1c(-c2ccc(O)cc2)nc2[nH]ncc2c1-c1ccc(Cn2ccnc2)cc1 [Compound 54]
100 to 1000 nM | > 10000 nM |  | N#Cc1c(-c2ccc(O)cc2F)nc2[nH]nc(N)c2c1-c1ccc(OCCCN2CCNCC2)cc1 [Compound 211]
1000 to 10000 nM | 1000 to 10000 nM |  | N#Cc1c(-c2cscn2)nc2[nH]nc(-c3ccc(N4CCOCC4)cc3)c2c1-c1ccc(N2CCNCC2)cc1 [Compound 281]
100 to 1000 nM | 1000 to 10000 nM |  | N#Cc1c(-c2ccc(O)cc2)nc2[nH]ncc2c1-c1ccc(O)cc1 [Compound 17]
1000 to 10000 nM | > 10000 nM |  | Cc1n[nH]c2nc(-c3ccc(N)cc3F)c(C#N)c(-c3ccc(N4CCNCC4)cc3)c12 [Compound 160]
1000 to 10000 nM | > 10000 nM |  | Cc1n[nH]c2nc(-c3cc(Br)c(O)c(Br)c3F)c(C#N)c(-c3ccco3)c12 [Compound 90]
< 100 nM | 100 to 1000 nM |  | Cc1n[nH]c2nc(-c3ccc(O)cc3F)c(C#N)c(-c3ccc(N4CCN(C)CC4)s3)c12 [Compound 184]
100 to 1000 nM | 100 to 1000 nM |  | N#Cc1c(-c2ccc(OC(=O)c3ccccc3)cc2F)nc2[nH]nc(-c3cccs3)c2c1-c1ccc(N2CCNCC2)cc1 [Compound 297]
< 100 nM | 1000 to 10000 nM |  | N#Cc1c(-c2ccc(O)c(Cl)c2)nc2[nH]nc(N)c2c1-c1ccc(N2CCNCC2)cc1 [Compound 192]
100 to 1000 nM | 100 to 1000 nM |  | Cc1cc(-c2nc3[nH]nc(C)c3c(-c3ccc(N4CCNCC4)cc3)c2C#N)ccc1O [Compound 176]
100 to 1000 nM | 1000 to 10000 nM |  | Cc1n[nH]c2nc(-c3ccc(O)cc3F)c(S(C)(=O)=O)c(-c3ccc(N4CCNCC4)cc3)c12 [Compound 238]
100 to 1000 nM | 1000 to 10000 nM |  | N#Cc1c(-c2ccc(O)cc2F)nc2[nH]ncc2c1-c1ccc(CO)o1 [Compound 77]

Source: patent US8889711B2, “Pyrazolopyridine derivatives as anticancer agent” (Pierre Fabre Medicament, priority 2009, dated 2014)
